# According to ChEMBL document CHEMBL1201862, “PubChem BioAssay data set” (2004):
# Activity calls are given as the source filed them.
# What was measured:
# [1] = target: Beta-2 adrenergic receptor (Homo sapiens, UniProt P07550); test: beta2AR agonists driving receptor internalization, dose response, cell-based, FAP fluorogen, flow cytometry, cherry pick 1 (AID 588763); type: functional
# [2] = target: Luciferin 4-monooxygenase (Photinus pyralis, UniProt P08659); test: firefly luciferase enzyme inhibitors, dose response, biochemical, luminescence (AID 1891)
# [3] = Luminescence Cell-Based Dose Confirmation HTS to Identify Inhibitors of Platelet Dense Granule Release. [Related pubchem assays: 1663 (Primary HTS), 1678 (Summary of Project)]; type: functional
# CAAX prenyl protease 2 [4] = target: CAAX prenyl protease 2 (Saccharomyces cerevisiae S288c, UniProt Q03530); type: biochemical
# [5] = mammalian cell cytotoxicity, dose response, cytotoxicity control, plate reader, cherry-pick samples (AID 504397); type: functional, cell-based
# CAAX prenyl protease 2 [6] = target: CAAX prenyl protease 2 (Homo sapiens, UniProt Q9Y256); test: human Rce1 protease inhibitors, dose response, biochemical, plate reader, dry powder samples (AID 588848)
# Phospholipase D1 = Phospholipase D1 (Homo sapiens, UniProt Q13393); test: PLD1 inhibitor potency in cells, dose response (AID 602151); type: functional;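 note: cellular PLD1 assay in Calu-1 cells stimulated with PMA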
# Phospholipase D2 = Phospholipase D2 (Homo sapiens, UniProt O14939); test: PLD2 inhibitor potency in cells, dose response (AID 602147); type: functional;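 note: cellular assay in HEK293 cells overexpressing GFP-tagged PLD2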
# [7] = target: T1, Sentrin-specific protease 8 (Homo sapiens, UniProt Q96LD8); test: SENP8 protease inhibitors, SAR follow-up, biochemical, luminescence (AID 504501); type: functional
# T1 sequence (Q96LD8 whole entry): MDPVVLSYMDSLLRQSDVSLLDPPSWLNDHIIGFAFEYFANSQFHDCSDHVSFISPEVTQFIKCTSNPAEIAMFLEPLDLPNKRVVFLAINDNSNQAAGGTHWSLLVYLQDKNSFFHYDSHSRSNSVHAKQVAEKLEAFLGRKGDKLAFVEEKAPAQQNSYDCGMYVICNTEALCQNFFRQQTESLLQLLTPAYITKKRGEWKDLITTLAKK
# Caspase-3 [8] = target: T2, Caspase-3 (Homo sapiens, UniProt P42574); test: caspase-3 inhibitors as off-family protease, SAR follow-up, selectivity assay for SENP protease inhibitor project, biochemical, luminescence, set 2 (AID 588599); type: functional
# T2 sequence (P42574 whole entry): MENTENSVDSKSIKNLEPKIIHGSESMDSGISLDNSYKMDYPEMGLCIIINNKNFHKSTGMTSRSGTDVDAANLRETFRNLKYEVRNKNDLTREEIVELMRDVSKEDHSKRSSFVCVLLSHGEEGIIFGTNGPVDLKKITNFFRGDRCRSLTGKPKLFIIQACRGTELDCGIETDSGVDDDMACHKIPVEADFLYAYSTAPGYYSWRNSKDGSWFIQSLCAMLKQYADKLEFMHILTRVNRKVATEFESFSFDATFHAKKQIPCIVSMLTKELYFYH
# [9] = target: T1, Sentrin-specific protease 8; test: SENP8 protease inhibitors, SAR follow-up, biochemical, luminescence, set 2 (AID 588601); type: functional
# Caspase-3 [10] = target: T2, Caspase-3; test: SAR Analysis of small molecule inhibitors of Sentrin-specific proteases (SENPs) using a Caspase-3 Selectivity assay. [Related pubchem assays (depositor defined):AID2540, AID2599, AID434973, AID489001]; type: functional
# [11] = target: T3, Sentrin-specific protease 7 (Homo sapiens, UniProt Q9BQF6); test: SENP7 protease inhibitors, SAR follow-up, biochemical, luminescence, set 2 (AID 588600); type: functional
# T3 sequence (Q9BQF6 whole entry): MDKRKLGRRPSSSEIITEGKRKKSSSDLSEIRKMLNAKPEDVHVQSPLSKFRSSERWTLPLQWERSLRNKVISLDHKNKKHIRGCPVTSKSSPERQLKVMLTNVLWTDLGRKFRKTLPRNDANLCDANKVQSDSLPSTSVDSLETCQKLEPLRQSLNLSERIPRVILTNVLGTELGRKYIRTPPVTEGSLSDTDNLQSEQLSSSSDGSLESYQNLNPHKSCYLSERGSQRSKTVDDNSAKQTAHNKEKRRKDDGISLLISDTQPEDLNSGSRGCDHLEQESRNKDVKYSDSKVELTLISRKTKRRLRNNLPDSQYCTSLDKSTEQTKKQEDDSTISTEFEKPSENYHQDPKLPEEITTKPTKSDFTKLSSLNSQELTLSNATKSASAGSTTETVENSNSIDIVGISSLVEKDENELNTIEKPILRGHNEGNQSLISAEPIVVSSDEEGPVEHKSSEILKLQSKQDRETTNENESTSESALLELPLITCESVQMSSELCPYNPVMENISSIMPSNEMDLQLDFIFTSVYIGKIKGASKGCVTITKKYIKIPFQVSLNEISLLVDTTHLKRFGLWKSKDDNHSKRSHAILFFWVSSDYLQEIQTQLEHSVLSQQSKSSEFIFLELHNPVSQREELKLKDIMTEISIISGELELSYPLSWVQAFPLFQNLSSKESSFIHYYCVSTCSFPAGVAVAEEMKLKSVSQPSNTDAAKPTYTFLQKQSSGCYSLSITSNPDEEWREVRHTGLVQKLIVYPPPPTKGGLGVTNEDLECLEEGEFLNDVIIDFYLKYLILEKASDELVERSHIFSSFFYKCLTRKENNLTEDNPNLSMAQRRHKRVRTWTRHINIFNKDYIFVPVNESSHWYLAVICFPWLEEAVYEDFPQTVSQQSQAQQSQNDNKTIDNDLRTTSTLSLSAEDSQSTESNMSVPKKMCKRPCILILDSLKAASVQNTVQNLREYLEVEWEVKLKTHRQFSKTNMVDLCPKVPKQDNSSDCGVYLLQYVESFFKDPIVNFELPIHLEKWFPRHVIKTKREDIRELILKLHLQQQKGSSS
# [12] = target: T4, Sentrin-specific protease 6 (Homo sapiens, UniProt Q9GZR1); test: SAR Analysis of small molecule inhibitors of Sentrin-specific protease 6 (SENP6) using a Luminescent assay. [Related pubchem assays (depositor defined):AID2582, AID2599]; type: functional
# T4 sequence (Q9GZR1 whole entry): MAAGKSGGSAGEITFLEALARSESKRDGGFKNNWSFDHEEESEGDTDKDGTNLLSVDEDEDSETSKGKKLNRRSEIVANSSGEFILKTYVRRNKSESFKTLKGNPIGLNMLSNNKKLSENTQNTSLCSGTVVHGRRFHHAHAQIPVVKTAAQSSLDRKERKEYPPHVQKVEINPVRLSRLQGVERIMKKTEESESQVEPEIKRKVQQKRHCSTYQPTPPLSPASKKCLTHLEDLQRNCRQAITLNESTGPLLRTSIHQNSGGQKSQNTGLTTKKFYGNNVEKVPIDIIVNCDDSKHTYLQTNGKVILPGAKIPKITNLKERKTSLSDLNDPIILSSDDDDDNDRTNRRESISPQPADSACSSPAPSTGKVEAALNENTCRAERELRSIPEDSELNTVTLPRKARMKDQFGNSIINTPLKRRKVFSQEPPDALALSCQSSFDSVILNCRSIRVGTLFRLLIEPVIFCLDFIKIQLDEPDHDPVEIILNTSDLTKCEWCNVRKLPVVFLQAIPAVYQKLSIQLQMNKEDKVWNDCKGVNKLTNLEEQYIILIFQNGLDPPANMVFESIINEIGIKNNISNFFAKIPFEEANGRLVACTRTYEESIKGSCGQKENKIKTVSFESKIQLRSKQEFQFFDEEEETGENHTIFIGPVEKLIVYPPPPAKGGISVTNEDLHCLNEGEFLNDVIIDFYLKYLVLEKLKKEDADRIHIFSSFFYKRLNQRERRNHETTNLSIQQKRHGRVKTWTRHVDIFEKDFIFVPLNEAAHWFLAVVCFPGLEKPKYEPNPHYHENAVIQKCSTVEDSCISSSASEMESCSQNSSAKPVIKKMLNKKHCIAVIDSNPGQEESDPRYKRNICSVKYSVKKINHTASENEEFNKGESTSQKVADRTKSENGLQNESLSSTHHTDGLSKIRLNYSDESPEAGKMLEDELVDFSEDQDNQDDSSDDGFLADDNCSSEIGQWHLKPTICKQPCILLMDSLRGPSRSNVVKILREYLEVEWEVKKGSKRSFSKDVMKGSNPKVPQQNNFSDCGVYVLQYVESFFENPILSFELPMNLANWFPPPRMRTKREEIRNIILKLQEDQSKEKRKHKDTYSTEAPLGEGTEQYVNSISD
# [13] = target: T4, Sentrin-specific protease 6; test: SENP6 protease inhibitors, SAR follow-up, biochemical, luminescence, set 2 (AID 588598); type: functional
# [14] = target: T3, Sentrin-specific protease 7; test: SENP7 protease inhibitors, SAR follow-up, biochemical, luminescence (AID 504497); type: functional
# Oxytocin receptor = Oxytocin receptor (Homo sapiens, UniProt P30559); test: Fluorescence-based cell-based high throughput dose response assay for potentiators of Oxytocin Receptor (OXTR). [Related pubchem assays: 434985 (Confirmation screen (OXTR potentiators in triplicate)), 2481 (Summary (OXTR potentiators)), 2445 (Primary screen (OXTR potentiators in singlicate))]; type: functional
# Aspartyl aminopeptidase = target: T5, Aspartyl aminopeptidase (Plasmodium falciparum 3D7, UniProt Q8I2J3)
# T5 sequence (Q8I2J3 whole entry): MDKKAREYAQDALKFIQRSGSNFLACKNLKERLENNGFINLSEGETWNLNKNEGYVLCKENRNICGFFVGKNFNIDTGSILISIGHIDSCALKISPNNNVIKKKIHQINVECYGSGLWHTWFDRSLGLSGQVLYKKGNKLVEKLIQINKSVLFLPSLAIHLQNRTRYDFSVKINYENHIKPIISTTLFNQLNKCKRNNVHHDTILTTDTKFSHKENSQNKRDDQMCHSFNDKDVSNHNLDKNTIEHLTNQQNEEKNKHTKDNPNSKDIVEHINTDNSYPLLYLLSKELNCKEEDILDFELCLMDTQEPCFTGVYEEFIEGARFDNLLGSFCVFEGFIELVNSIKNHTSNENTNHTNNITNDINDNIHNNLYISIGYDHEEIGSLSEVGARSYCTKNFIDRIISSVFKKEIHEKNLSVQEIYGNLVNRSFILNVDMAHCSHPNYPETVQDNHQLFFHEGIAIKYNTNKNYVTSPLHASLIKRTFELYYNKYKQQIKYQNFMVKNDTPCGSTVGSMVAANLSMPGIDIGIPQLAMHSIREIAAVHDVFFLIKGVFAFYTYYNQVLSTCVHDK
# Procathepsin L = Procathepsin L (Homo sapiens, UniProt P07711)
# Large T antigen = Large T antigen (Simian virus 40, UniProt P03070); type: functional, Betapolyomavirus macacae;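 note: Confirmatory-stage PubChem screen for compounds that inhibit SV40 T antigen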
# [15] = target: Latent membrane protein 1 (Human herpesvirus 4 (strain B95-8), UniProt P03230); test: TES1-eGFP NF-kB reporter inhibition versus Tet-On dsRED, dose response, selectivity assay for LMP1 NF-kB inhibitor project, imaging, HEK293T, dual-color eGFP/dsRED, cherry-picks (AID 588398); type: functional, cell-based
# Sequence of Latent membrane protein 1 (P03230 whole entry): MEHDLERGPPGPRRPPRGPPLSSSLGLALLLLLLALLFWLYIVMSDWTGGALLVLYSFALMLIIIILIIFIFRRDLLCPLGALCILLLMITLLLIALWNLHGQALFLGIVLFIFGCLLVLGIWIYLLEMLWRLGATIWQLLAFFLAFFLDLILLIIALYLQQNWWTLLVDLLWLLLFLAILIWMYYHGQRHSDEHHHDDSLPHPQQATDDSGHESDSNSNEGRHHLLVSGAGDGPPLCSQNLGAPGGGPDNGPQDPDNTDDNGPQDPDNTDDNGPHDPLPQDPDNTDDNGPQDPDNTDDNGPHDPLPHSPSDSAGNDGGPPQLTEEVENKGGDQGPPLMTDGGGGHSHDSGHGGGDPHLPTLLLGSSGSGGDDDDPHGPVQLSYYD
# Sequence of Oxytocin receptor (P30559 whole entry): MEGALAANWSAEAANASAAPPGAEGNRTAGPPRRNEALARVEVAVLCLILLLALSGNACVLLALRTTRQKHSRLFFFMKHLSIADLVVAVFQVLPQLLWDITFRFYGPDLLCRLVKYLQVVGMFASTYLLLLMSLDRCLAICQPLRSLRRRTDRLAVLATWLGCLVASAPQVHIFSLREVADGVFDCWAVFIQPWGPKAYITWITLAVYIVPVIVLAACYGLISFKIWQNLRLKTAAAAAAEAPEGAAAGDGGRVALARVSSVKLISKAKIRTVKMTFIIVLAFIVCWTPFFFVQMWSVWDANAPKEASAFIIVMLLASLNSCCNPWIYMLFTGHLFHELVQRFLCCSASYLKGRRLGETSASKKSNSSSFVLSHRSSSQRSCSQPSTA
# Sequence of CAAX prenyl protease 2 (Saccharomyces cerevisiae S288c, UniProt Q03530) (Q03530 whole entry): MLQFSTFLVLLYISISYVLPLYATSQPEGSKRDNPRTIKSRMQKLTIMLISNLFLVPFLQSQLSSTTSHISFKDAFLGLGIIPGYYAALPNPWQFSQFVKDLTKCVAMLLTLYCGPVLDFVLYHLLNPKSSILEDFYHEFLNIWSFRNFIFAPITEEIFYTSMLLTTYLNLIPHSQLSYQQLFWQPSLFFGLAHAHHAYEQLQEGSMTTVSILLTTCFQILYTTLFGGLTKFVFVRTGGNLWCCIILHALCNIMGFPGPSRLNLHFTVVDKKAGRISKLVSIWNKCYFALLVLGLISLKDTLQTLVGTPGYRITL
# Sequence of Procathepsin L (P07711 whole entry): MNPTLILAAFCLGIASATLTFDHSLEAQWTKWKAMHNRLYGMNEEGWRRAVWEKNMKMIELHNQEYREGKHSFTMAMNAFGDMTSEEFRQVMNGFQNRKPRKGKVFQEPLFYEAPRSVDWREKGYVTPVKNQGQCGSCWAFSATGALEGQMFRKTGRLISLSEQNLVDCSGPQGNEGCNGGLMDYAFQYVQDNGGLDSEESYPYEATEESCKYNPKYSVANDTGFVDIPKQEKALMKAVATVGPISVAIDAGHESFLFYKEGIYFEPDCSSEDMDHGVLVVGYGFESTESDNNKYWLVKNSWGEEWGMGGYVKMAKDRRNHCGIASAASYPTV
# Sequence of Phospholipase D1 (Q13393 whole entry): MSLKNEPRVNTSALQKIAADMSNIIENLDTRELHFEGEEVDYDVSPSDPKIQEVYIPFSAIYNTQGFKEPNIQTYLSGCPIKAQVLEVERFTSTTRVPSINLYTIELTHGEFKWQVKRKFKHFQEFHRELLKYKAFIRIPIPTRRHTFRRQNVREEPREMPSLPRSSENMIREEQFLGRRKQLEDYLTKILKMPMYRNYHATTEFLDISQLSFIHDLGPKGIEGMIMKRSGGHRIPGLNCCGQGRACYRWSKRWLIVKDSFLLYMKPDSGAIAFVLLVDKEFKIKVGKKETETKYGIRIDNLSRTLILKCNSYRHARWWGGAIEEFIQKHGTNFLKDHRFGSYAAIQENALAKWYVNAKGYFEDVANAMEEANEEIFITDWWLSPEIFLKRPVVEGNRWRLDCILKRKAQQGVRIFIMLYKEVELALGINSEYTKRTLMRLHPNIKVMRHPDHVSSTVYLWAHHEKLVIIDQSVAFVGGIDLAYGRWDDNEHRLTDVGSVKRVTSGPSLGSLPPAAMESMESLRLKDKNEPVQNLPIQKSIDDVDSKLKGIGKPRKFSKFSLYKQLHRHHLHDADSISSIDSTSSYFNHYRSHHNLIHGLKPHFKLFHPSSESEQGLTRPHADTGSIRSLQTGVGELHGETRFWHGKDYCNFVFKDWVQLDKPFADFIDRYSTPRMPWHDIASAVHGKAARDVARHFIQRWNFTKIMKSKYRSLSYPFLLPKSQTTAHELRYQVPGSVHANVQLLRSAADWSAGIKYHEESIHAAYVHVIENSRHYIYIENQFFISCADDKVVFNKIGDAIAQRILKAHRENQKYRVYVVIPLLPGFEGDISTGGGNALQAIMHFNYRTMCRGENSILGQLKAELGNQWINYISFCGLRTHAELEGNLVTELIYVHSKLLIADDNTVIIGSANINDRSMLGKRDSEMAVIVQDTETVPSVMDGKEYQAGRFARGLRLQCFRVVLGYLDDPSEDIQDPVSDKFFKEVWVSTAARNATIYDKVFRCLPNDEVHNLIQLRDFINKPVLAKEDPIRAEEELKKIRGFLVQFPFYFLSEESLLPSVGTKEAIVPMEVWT
# Sequence of CAAX prenyl protease 2 (Homo sapiens, UniProt Q9Y256) (Q9Y256 whole entry): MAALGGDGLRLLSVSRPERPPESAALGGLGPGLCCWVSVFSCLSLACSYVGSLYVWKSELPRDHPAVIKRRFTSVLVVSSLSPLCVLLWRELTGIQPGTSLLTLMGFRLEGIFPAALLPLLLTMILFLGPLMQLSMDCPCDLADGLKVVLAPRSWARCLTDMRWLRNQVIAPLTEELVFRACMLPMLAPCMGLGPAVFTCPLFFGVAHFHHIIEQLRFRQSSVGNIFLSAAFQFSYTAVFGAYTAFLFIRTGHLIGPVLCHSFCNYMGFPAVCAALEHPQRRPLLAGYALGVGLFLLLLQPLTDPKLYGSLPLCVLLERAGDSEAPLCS
# Sequence of Luciferin 4-monooxygenase (P08659 whole entry): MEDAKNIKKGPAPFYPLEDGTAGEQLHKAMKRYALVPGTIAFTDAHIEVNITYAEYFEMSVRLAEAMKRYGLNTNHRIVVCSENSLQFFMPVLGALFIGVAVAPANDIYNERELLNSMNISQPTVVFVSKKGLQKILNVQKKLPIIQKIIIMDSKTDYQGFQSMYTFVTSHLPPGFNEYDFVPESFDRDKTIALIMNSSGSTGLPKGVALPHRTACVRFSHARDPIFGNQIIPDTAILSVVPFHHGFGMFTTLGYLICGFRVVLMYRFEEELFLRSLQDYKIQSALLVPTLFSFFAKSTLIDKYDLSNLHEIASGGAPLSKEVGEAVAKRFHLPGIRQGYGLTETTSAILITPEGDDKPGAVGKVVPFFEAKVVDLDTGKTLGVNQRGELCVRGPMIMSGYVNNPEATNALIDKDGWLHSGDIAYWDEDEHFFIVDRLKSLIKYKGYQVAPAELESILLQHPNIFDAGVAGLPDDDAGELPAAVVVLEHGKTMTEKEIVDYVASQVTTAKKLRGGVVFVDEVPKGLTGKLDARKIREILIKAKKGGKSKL
# Sequence of Phospholipase D2 (O14939 whole entry): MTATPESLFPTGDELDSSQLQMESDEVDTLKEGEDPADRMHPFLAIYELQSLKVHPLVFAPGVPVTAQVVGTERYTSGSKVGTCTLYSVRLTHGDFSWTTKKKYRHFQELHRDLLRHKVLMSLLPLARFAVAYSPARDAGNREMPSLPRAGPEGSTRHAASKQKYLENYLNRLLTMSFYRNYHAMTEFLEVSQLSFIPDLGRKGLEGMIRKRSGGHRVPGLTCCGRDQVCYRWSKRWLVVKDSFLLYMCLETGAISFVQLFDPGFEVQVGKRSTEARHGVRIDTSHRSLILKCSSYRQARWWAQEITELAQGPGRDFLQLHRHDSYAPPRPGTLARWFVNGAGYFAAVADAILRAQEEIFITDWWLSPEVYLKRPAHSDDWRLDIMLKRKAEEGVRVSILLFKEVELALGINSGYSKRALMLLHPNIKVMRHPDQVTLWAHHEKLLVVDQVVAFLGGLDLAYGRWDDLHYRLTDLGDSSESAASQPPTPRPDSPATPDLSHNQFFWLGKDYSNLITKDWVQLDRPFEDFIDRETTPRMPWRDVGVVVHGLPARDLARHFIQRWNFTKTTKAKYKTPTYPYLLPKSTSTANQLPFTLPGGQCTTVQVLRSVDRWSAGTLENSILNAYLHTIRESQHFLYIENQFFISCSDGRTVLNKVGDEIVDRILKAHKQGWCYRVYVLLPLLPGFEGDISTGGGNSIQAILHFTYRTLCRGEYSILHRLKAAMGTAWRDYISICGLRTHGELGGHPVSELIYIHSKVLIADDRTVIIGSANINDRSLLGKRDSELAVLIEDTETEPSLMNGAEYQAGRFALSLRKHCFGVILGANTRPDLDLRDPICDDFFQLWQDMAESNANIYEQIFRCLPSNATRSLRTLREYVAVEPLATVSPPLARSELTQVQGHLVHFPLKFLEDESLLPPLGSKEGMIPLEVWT
# Sequence of Large T antigen (P03070 whole entry): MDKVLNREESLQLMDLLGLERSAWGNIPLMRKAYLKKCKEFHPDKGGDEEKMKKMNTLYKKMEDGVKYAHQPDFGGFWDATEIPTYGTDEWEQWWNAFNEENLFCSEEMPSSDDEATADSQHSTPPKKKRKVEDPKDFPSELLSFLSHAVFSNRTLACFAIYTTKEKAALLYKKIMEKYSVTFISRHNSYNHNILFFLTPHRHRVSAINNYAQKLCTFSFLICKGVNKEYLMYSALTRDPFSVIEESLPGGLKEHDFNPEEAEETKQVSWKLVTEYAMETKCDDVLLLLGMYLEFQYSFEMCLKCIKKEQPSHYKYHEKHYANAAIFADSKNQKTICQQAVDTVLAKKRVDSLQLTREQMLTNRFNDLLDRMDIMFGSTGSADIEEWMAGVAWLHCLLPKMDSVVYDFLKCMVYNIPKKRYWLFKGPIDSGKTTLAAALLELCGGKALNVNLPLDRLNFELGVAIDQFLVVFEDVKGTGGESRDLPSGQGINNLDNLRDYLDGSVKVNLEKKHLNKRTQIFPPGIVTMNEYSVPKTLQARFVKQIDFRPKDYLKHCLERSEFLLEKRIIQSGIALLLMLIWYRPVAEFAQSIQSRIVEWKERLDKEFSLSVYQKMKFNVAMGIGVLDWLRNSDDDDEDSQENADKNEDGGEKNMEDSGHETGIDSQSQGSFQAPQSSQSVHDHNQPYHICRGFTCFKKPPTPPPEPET
compound,measurement,setting,value
O=C(NCCCn1ccnc1)C1CCCN(S(=O)(=O)c2cc(Cl)ccc2Cl)C1 (stereo unspecified),EC50,[1],0.999 µM (active)
O=C(COC(=O)/C=C/c1cn(-c2ccccc2)nc1-c1ccc2c(c1)OCCO2)NC1CCS(=O)(=O)C1 (stereo unspecified),EC50,[2],> 112 µM (not active)
same,EC50,[3],> 112 µM (not active)
same,AC50,CAAX prenyl protease 2 [4],0.542 µM (active)
same,AC50,[5],89.2 µM (active)
same,AC50,CAAX prenyl protease 2 [6],17.4 µM (active)
CN1CN(c2ccccc2)C2(CCN(CCNC(=O)c3ccc4ccccc4c3)CC2)C1=O,IC50,Phospholipase D1,2.8 µM (active)
same,IC50,Phospholipase D2,20 µM (active)
Oc1ccccc1-c1nc(/C=C/c2ccc(Cl)cc2)no1,IC50,[7],> 99 µM (inactive)
same,IC50,Caspase-3 [8],1.57 µM (active)
same,IC50,[9],1.44 µM (active)
same,IC50,Caspase-3 [10],3.7 µM (active)
same,IC50,[11],2.08 µM (active)
same,IC50,[12],> 99 µM (inactive)
same,IC50,[13],1.5 µM (active)
same,IC50,[14],1.4 µM (active)
O=c1c(O)c(-c2ccc(O)c(O)c2)oc2cc(O)cc(O)c12 [QUERCETIN DIHYDRATE],EC50,Oxytocin receptor,> 29.9 µM (not active)
same,IC50,Aspartyl aminopeptidase,0.385 µM (active)
same,IC50,Procathepsin L,> 59.6 µM (not active)
same,IC50,Large T antigen,16.1 µM (active)
same,AC50,[15],233 µM (active)
